Drawing on PubChem BioAssay (NCI), this text covers TGI for eight compounds.

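Cultured in 96-well plates, cells were exposed to test compound for 48 hours across five concentrations. Definition used: TGI = concentration required for complete inhibition of growth.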 Where only a bound is given, the exact number is not on record here.

Test systems include A549 NSCLC; ACHN renal; CAKI-1 renal; HCT-116 colon; KM12 colon; NCI-H226 lung; NCI-H522 lung; OVCAR-3 ovarian; OVCAR-8 ovarian; SF-268 CNS; SF-295 CNS; SF-539 CNS; SK-MEL-28 melanoma; SNB-75 CNS; U251 CNS; UO-31 renal; NCI-H460 lung.
Holding throughout (experiment): DTP human tumour cell line panel, 48 h

The TGI is the concentration giving total growth inhibition. Read a low TGI as greater sensitivity of the cells. In the case of `COc1cccc(/C=C2\C(=O)N(C(=O)Cc3ccccc3)N=C2C)c1`, the TGI with A549 NSCLC, in the assay with ACHN renal, in the assay with CAKI-1 renal, in the assay with HCT-116 colon, in the assay with KM12 colon and with NCI-H226 lung was greater than 100 µM in each case. For the same compound, the TGI in the assay with NCI-H522 lung, with OVCAR-3 ovarian, with OVCAR-8 ovarian, in the assay with SF-268 CNS, in the assay with SF-295 CNS and with SF-539 CNS was greater than 100 µM in each case. Besides, the TGI in the assay with SK-MEL-28 melanoma, in the assay with SNB-75 CNS, in the assay on U251 CNS and in the assay with UO-31 renal was greater than 100 µM in each case.

In the case of `COCC12CC(CC1=O)C1C2ON2c3ccccc3C(=O)C12c1ccccc1` (stereo not drawn), the TGI in the assay with A549 NSCLC, with ACHN renal, in the assay on HCT-116 colon, with NCI-H226 lung, with NCI-H522 lung and with OVCAR-8 ovarian was greater than 100 µM in each case. In addition, the TGI with SF-268 CNS, in the assay on SF-295 CNS, in the assay on SF-539 CNS, in the assay on SK-MEL-28 melanoma, in the assay with SNB-75 CNS and in the assay on U251 CNS was greater than 100 µM each time. The TGI with UO-31 renal was greater than 100 µM.

Turning to `Cn1c(N)c(-c2c3ccccc3nc3ccccc23)c(=O)n(C)c1=O`, the TGI in the assay with A549 NSCLC, in the assay on CAKI-1 renal, in the assay on HCT-116 colon, in the assay with KM12 colon, in the assay with NCI-H522 lung and with OVCAR-3 ovarian was greater than 100 µM each time. The TGI in the assay on OVCAR-8 ovarian, in the assay on SF-268 CNS, in the assay with SF-295 CNS, in the assay with SF-539 CNS, in the assay with SK-MEL-28 melanoma and with U251 CNS was greater than 100 µM in each case.

For the compound `CC1=NN(c2ccccc2)C(=O)C1=C1SCCCS1`, the TGI with A549 NSCLC is greater than 100 µM; in the assay on ACHN renal, greater than 100 µM; in the assay on CAKI-1 renal, 52.1 µM; in the assay with HCT-116 colon, 31.7 µM; with KM12 colon it was 66 µM; in the assay on NCI-H226 lung, greater than 100 µM. The TGI in the assay on NCI-H460 lung was greater than 100 µM; with NCI-H522 lung, 37.5 µM; with OVCAR-3 ovarian, 70.7 µM; in the assay with OVCAR-8 ovarian it was greater than 100 µM; in the assay on SF-268 CNS, greater than 100 µM; with SF-295 CNS it was 73.7 µM. Further, the TGI with SK-MEL-28 melanoma was greater than 100 µM; with SNB-75 CNS, greater than 100 µM; in the assay on U251 CNS it was 37.4 µM; in the assay with UO-31 renal it was greater than 100 µM.

Take `CO[C@H](c1ccccc1)[C@H](C)N(C)c1ccc2ccccc2c1C1=NC(C)(C)CO1`: the TGI in the assay on A549 NSCLC stood at 35.2 µM; in the assay with ACHN renal, 36.4 µM; with HCT-116 colon it was 34.6 µM; in the assay on KM12 colon, 40.2 µM; in the assay on NCI-H226 lung, 34.8 µM; in the assay with NCI-H460 lung, 33 µM. Moreover, the TGI came to 19.4 µM with NCI-H522 lung; 30.7 µM with OVCAR-3 ovarian; 26.7 µM with OVCAR-8 ovarian; 36.1 µM in the assay with SF-268 CNS; 30.8 µM with SF-295 CNS; 29.9 µM with SF-539 CNS. Further, the TGI came to 34 µM in the assay with SK-MEL-28 melanoma, 32.4 µM with SNB-75 CNS, 30.5 µM in the assay on U251 CNS and 27.9 µM with UO-31 renal.

Consider `C[N+](C)(Cc1ccc(NC(=O)CCCC(=O)ON2C(=O)CCC2=O)cc1)c1ccccc1`, for which the TGI was 2.08 µM with A549 NSCLC; greater than 100 µM in the assay on ACHN renal; greater than 100 µM with CAKI-1 renal; 18.2 µM in the assay with HCT-116 colon; greater than 100 µM in the assay with KM12 colon; 0.0133 µM in the assay on NCI-H226 lung. The TGI in the assay on NCI-H522 lung is greater than 100 µM; with OVCAR-3 ovarian, greater than 100 µM; with OVCAR-8 ovarian, greater than 100 µM; in the assay on SF-268 CNS, 3.93 µM; in the assay with SF-295 CNS, greater than 100 µM; in the assay with SF-539 CNS it was less than 0.01 µM. The TGI with SK-MEL-28 melanoma is less than 0.01 µM; in the assay on SNB-75 CNS, 2.42 µM; in the assay on U251 CNS, greater than 100 µM.

On to `CCCCCC(=O)Cc1cc(OC)cc2c1C(=O)Oc1cc(O)c(C(=O)O)c(CC(=O)CCCCC)c1O2`, for which the TGI was greater than 100 µM with A549 NSCLC; greater than 100 µM in the assay on ACHN renal; greater than 100 µM with CAKI-1 renal; 71.2 µM in the assay with HCT-116 colon; greater than 100 µM in the assay on KM12 colon; greater than 100 µM with NCI-H226 lung. Further, the TGI was greater than 100 µM in the assay on NCI-H460 lung; greater than 100 µM in the assay with NCI-H522 lung; 43.8 µM in the assay on OVCAR-3 ovarian; greater than 100 µM in the assay with OVCAR-8 ovarian; greater than 100 µM in the assay with SF-268 CNS; greater than 100 µM in the assay with SF-295 CNS. Further, the TGI is greater than 100 µM in the assay with SNB-75 CNS and 29.3 µM in the assay with U251 CNS.

As for `COc1cc(C2C(Cl)C(=O)N2NC(=O)Cc2ccccc2)ccc1O` (stereo not drawn), the TGI in the assay with A549 NSCLC, in the assay on ACHN renal, with CAKI-1 renal, in the assay with HCT-116 colon, in the assay with KM12 colon and with NCI-H226 lung was greater than 100 µM in each case. Besides, the TGI was greater than 100 µM with NCI-H460 lung; 56.3 µM in the assay with NCI-H522 lung; greater than 100 µM in the assay with OVCAR-3 ovarian; greater than 100 µM with OVCAR-8 ovarian; greater than 100 µM with SF-268 CNS; greater than 100 µM with SF-295 CNS. For the same compound, the TGI in the assay on SK-MEL-28 melanoma, in the assay on SNB-75 CNS, with U251 CNS and in the assay with UO-31 renal was greater than 100 µM in each case.
